Article PMC11046985 (Neuro-Oncology Advances, 2024)
Where two headings read alike, the source gives them in different places.

Experiments:
[1] = daily afatinib, recurrent glioblastoma; read-out: Cmax in plasma; cited from earlier work
[2] = Afatinib plasma concentration, HPLC-MS/MS, phase I pulsatile afatinib; type: in vivo, human
Description: (§1) Pharmacokinetic (PK) data were obtained to guide optimal dose of afatinib. The time of maximum plasma concentration is reported between 2 and 5 hours after dosing.[18],[19]

[3] = mouse, 30 mg/kg afatinib, CSF from the dura through the atlanto-occipital membrane; cited from earlier work
[4] = test system: progressive or recurrent brain cancers; test: Tumor response by MRI (RANO criteria), PFS, survival, cycles received; type: in vivo, human
Description: Tumor response was assessed by MRI after every 2 treatment cycles, or earlier if clinically indicated, according to the Response Assessment in Neuro-Oncology criteria.

[5] = Afatinib CSF concentration (lumbar puncture), HPLC-MS/MS; type: in vivo; details: human, oral
Description: as §1

[6] = cited from earlier work
[7] = test system: U87MG human glioblastoma cells; details: cited from earlier work
[8] = read-out: Maximum concentration (Cmax) of afatinib in plasma; single dose of 40 mg, patients with solid tumors; cited from earlier work
[9] = 21 patients evaluable for efficacy
[10] = dose cohort 1 (80 mg every 4 days)
[11] = dose cohort 1 (80 mg every 4 days), 2 response-evaluable
[12] = dose cohort 2 (120 mg every 4 days)
[13] = dose cohort 2 (120 mg every 4 days), 3 response-evaluable
[14] = dose cohort 3 (180 mg every 4 days)
[15] = dose cohort 3 (180 mg every 4 days), 6 response-evaluable
[16] = dose cohort 4 (280 mg every 7 days), 10 response-evaluable

CN(C)C/C=C/C(=O)Nc1cc2c(Nc3ccc(F)c(Cl)c3)ncnc2cc1O[C@H]1CCOC1 [Afatinib]
Cmax [1]: ~0.024 µM
Highest afatinib level in blood, one patient ([2]; 120 mg every 4 days cohort): approximately 0.8 μM
Cmax ([2]; human, plasma, 3 hours (± 2 hours) post dosing, oral, all cohorts): < 0.392 µg/mL
Pre-dose (trough) afatinib levels in blood ([2]; pulse dosing, all cohorts): under 50 nM
Afatinib concentration in blood ([2]; subject 002, Cohort 1: 80 mg q4d, post dosing, C1D8): 12.323 ng/mL
Afatinib concentration in blood ([2]; subject 002, Cohort 1: 80 mg q4d, pre dosing, C1D8): 8.751 ng/mL
Afatinib concentration in blood ([2]; subject 002, Cohort 1: 80 mg q4d, pre dosing, C2D1): 11.693 ng/mL
Afatinib concentration in blood ([2]; subject 002, Cohort 1: 80 mg q4d, pre dosing, EOT (EoC2)): <LLOQ (EoC2)
Afatinib concentration in blood ([2]; subject 003, Cohort 1: 80 mg q4d, post dosing, C1D22): 30.096 ng/mL
Afatinib concentration in blood ([2]; subject 003, Cohort 1: 80 mg q4d, pre dosing, C1D22): 17.318 ng/mL
Afatinib concentration in blood ([2]; subject 004, Cohort 1: 80 mg q4d, pre dosing, C2D1): <LLOQ
Afatinib concentration in blood ([2]; subject 005, Cohort 2: 120 mg q4d, post dosing, C1D15): 37.68 ng/mL
Afatinib concentration in blood ([2]; subject 005, Cohort 2: 120 mg q4d, pre dosing, C2D1): 7.18 ng/mL
Afatinib concentration in blood ([2]; subject 006, Cohort 2: 120 mg q4d, post dosing, C1D15): 66.156 ng/mL
Afatinib concentration in blood ([2]; subject 006, Cohort 2: 120 mg q4d, pre dosing, C1D15): <LLOQ
Afatinib concentration in blood ([2]; subject 006, Cohort 2: 120 mg q4d, pre dosing, C2D1): 10.104 ng/mL
Afatinib concentration in blood ([2]; subject 006, Cohort 2: 120 mg q4d, pre dosing, C3D1): <LLOQ
Afatinib concentration in blood ([2]; subject 006, Cohort 2: 120 mg q4d, pre dosing, C4D1): 11.223 ng/mL
Afatinib concentration in blood ([2]; subject 008, Cohort 2: 120 mg q4d, post dosing, C1D8): 392.01 ng/mL
Afatinib concentration in blood ([2]; subject 008, Cohort 2: 120 mg q4d, pre dosing, C1D8): 22.243 ng/mL
Afatinib concentration in blood ([2]; subject 010, Cohort 3: 180 mg q4d, post dosing, C1D22): 324.265 ng/mL
Afatinib concentration in blood ([2]; subject 010, Cohort 3: 180 mg q4d, pre dosing, C1D22): 43.226 ng/mL
Afatinib concentration in blood ([2]; subject 011, Cohort 3: 180 mg q4d, post dosing, C1D8): 11.705 ng/mL
Afatinib concentration in blood ([2]; subject 011, Cohort 3: 180 mg q4d, pre dosing, C1D8): 11.616 ng/mL
Afatinib concentration in blood ([2]; subject 011, Cohort 3: 180 mg q4d, pre dosing, C3D1): 19.265 ng/mL
Afatinib concentration in blood ([2]; subject 012, Cohort 3: 180 mg q4d, post dosing, C1D15): 96.354 ng/mL
Afatinib concentration in blood ([2]; subject 012, Cohort 3: 180 mg q4d, post dosing, C2D1): 85.834 ng/mL
Afatinib concentration in blood ([2]; subject 012, Cohort 3: 180 mg q4d, pre dosing, C1D15): <LLOQ
Afatinib concentration in blood ([2]; subject 012, Cohort 3: 180 mg q4d, pre dosing, C2D1): <LLOQ
Afatinib concentration in blood ([2]; subject 012, Cohort 3: 180 mg q4d, pre dosing, EOT (EoC4)): 6.402 (EoC4) ng/mL
Afatinib concentration in blood ([2]; subject 013, Cohort 3: 180 mg q4d, pre dosing, C1D15): 10.374 ng/mL
Afatinib concentration in blood ([2]; subject 013, Cohort 3: 180 mg q4d, pre dosing, C2D1): 41.964 ng/mL
Afatinib concentration in blood ([2]; subject 013, Cohort 3: 180 mg q4d, pre dosing, C4D1): 6.787 ng/mL
Afatinib concentration in blood ([2]; subject 014, Expansion Cohort 3: 180 mg q4d, post dosing, C1D8): 60.605 ng/mL
Afatinib concentration in blood ([2]; subject 014, Expansion Cohort 3: 180 mg q4d, pre dosing, C1D8): 11.442 ng/mL
Afatinib concentration in blood ([2]; subject 015, Cohort 4: 280 mg q7d, post dosing, C1D15): 40.694 ng/mL
Afatinib concentration in blood ([2]; subject 015, Cohort 4: 280 mg q7d, pre dosing, EOT (EoC1)): <LLOQ (EoC1)
Afatinib concentration in blood ([2]; subject 016, Cohort 4: 280 mg q7d, post dosing, C1D15): 205.634 ng/mL
Afatinib concentration in blood ([2]; subject 017, Expansion Cohort 3: 180 mg q4d, post dosing, C1D15): 89.884 ng/mL
Afatinib concentration in blood ([2]; subject 017, Expansion Cohort 3: 180 mg q4d, pre dosing, C1D15): 10.425 ng/mL
Afatinib concentration in blood ([2]; subject 017, Expansion Cohort 3: 180 mg q4d, pre dosing, C2D1): 5.708 ng/mL
Afatinib concentration in blood ([2]; subject 017, Expansion Cohort 3: 180 mg q4d, pre dosing, C3D1): <LLOQ
Afatinib concentration in blood ([2]; subject 017, Expansion Cohort 3: 180 mg q4d, pre dosing, C4D1): 6.264 ng/mL
Afatinib concentration in blood ([2]; subject 018, Cohort 4: 280 mg q7d, post dosing, C1D15): 322.557 ng/mL
Afatinib concentration in blood ([2]; subject 018, Cohort 4: 280 mg q7d, post dosing, C2D1): 340.709 ng/mL
Afatinib concentration in blood ([2]; subject 018, Cohort 4: 280 mg q7d, pre dosing, C1D15): 9.603 ng/mL
Afatinib concentration in blood ([2]; subject 018, Cohort 4: 280 mg q7d, pre dosing, C2D1): 22.084 ng/mL
Afatinib concentration in blood ([2]; subject 018, Cohort 4: 280 mg q7d, pre dosing, C3D1): 14.169 ng/mL
Afatinib concentration in blood ([2]; subject 018, Cohort 4: 280 mg q7d, pre dosing, C4D1): 11.731 ng/mL
Afatinib concentration in blood ([2]; subject 018, Cohort 4: 280 mg q7d, pre dosing, EOT (EoC4)): 10.379 (EoC4) ng/mL
Afatinib concentration in blood ([2]; subject 019, Expansion Cohort 4: 280 mg q7d, post dosing, C1D8): 153.973 ng/mL
Afatinib concentration in blood ([2]; subject 019, Expansion Cohort 4: 280 mg q7d, pre dosing, C1D8): 9.857 ng/mL
Afatinib concentration in blood ([2]; subject 019, Expansion Cohort 4: 280 mg q7d, pre dosing, C2D1): 11.805 ng/mL
Afatinib concentration in blood ([2]; subject 019, Expansion Cohort 4: 280 mg q7d, pre dosing, EOT (EoC2)): <LLOQ (EoC2)
Afatinib concentration in blood ([2]; subject 020, Expansion Cohort 4: 280 mg q7d, post dosing, C1D15): 110.625 ng/mL
Afatinib concentration in blood ([2]; subject 020, Expansion Cohort 4: 280 mg q7d, pre dosing, C1D15): 8.586 ng/mL
Afatinib concentration in blood ([2]; subject 020, Expansion Cohort 4: 280 mg q7d, pre dosing, C2D1): 11.278 ng/mL
Afatinib concentration in blood ([2]; subject 021, Expansion Cohort 4: 280 mg q7d, post dosing, C1D15): 40.352 ng/mL
Afatinib concentration in blood ([2]; subject 021, Expansion Cohort 4: 280 mg q7d, pre dosing, C1D15): 5.966 ng/mL
Afatinib concentration in blood ([2]; subject 021, Expansion Cohort 4: 280 mg q7d, pre dosing, C2D1): <LLOQ
Afatinib concentration in blood ([2]; subject 021, Expansion Cohort 4: 280 mg q7d, pre dosing, EOT (C2D15)): <LLOQ (C2D15)
Time of peak concentration in CSF after dosing [3]: one
Disease stabilization, % of patients [4, 9]: 14.3%
Disease stabilization, No. of patients [4, 9]: 3
Partial response (RANO), % of patients [4, 9]: 9.5%
Partial response (RANO), No. of patients [4, 9]: 2
Progressive disease, No. of patients [4, 9]: Sixteen
Median overall survival ([4]; all patients): 10.3 months
PFS, Median [4, 10]: 44 days
PFS, Range [4, 10]: 32 to 56 days
Best Response CR, No. of patients [4, 11]: 0
Best Response PD, No. of patients [4, 11]: 2
Best Response PR, No. of patients [4, 11]: 0
Best Response SD, No. of patients [4, 11]: 0
PFS, Median [4, 12]: 42 days
PFS, Range [4, 12]: 29 to 106 days
Best Response CR, No. of patients [4, 13]: 0
Best Response PD, No. of patients [4, 13]: 2
Best Response PR, No. of patients [4, 13]: 1
Best Response SD, No. of patients [4, 13]: 0
PFS, Median [4, 14]: 78 days
PFS, Range [4, 14]: 20 to 261 days
Best Response CR, No. of patients [4, 15]: 0
Best Response PD, No. of patients [4, 15]: 4
Best Response PR, No. of patients [4, 15]: 0
Best Response SD, No. of patients [4, 15]: 2
PFS, Median ([4]; dose cohort 4 (280 mg every 7 days)): 56 days
Best Response CR, No. of patients [4, 16]: 0
Best Response PD, No. of patients [4, 16]: 8
Best Response PR, No. of patients [4, 16]: 1
Best Response SD, No. of patients [4, 16]: 1
Median overall survival ([4]; glioblastoma): 5.2 months
Median progression-free survival ([4]; overall): 2.0 months
Progression-free survival rate at 6 months (PFS6) ([4]; patients with glioblastoma (n = 16)): 0%
concentration at 3 h ([5]; 8 patients, approximately 3 hours after dosing in the first cycle, below lower limit of quantification): < 0.00101 µg/mL
concentration at 3 h ([5]; not detected, lower limit of quantification): < 0.00209 µM
Median concentration of afatinib in CSF ([6]; afatinib 40 mg daily, 11 patients, leptomeningeal metastases from NSCLC, steady-state day 8): 2.9 nM
Afatinib concentration in the CSF ([6]; daily afatinib, case of leptomeningeal carcinomatosis): 0.05 nM
Inhibitory concentration of 25% (IC25) [7]: approximately 2 μM
Cmax [8]: ~0.01 µM
